Test results from patent US9255107B2 (NANJING SANHOME PHARMACEUTICAL CO., LTD., priority 2012, dated 2016).
Structures can show the parent of a compound that is named as a salt. Where two headings read alike, the source gives them in different places.

How the values were obtained:
[1] = tested on: Ovcar-3 human ovarian cancer cells; assay: MTT assay, in vitro inhibitory activity on cells; assay type: cell-based; conditions: typically 48 hours
Description: (§1) In this example, MTT assay was used to detect in vitro inhibitory activity of the compounds prepared according to the above examples on the cells.
(§2) Dimethyl sulfoxide (DMSO) is capable of dissolving formazan in cells, and absorbance value can be measured at a wavelength of 490 nm by an enzyme-linked immunometric meter, which reflects the number of living cells. Within a certain range of the number of cells, the amount of MTT crystals formed is proportional to the number of living cells.
(§3) 2. Culturing in a 37° C., 5% CO2 incubator and keeping the cells adhering to the walls of the wells.
(§4) 4. Carefully removing the supernatant, gently washing with PBS and discarding the supernatant again.
(§5) 6. Terminating culturing and carefully discarding the medium in each well. 7. Adding 150 μl dimethyl sulfoxide into each well, shaking for 10 minutes at low speed in a shaker, to make crystals fully dissolved.
(§6) 8. Measuring the absorbance of each well at 490 nm by an enzyme-linked immunometric meter.

[2] = tested on: Saos-2 human osteosarcoma cells; assay: MTT assay, in vitro inhibitory activity on cells; assay type: cell-based; conditions: typically 48 hours
Description: as §1, §2, §3, §4, §5, §6

K562 leukemia cells = assay: MTT assay, in vitro inhibitory activity on cells; assay type: cell-based; conditions: Homo sapiens, typically 48 hours, read-out: IC50 K562 Chronic myelogenous leukemia cells
Description: as §1, §2, §3, §4, §5, §6

[3] = tested on: MDA-MB-231 human breast cancer cells; assay: MTT assay, in vitro inhibitory activity on cells; assay type: cell-based; conditions: typically 48 hours
Description: as §1, §2, §3, §4, §5, §6

Human ABL1 (T315I) = Human ABL1 (T315I) (Homo sapiens (Human), UniProt P00519, T315I); assay: ABL1 (T315I) kinase activity assay ([γ-33P] ATP, Abltide); assay type: biochemical; conditions: 1.0 μM ATP, 5.0 μM Abltide, 120 minutes
Description: In the experimental example, the compounds prepared according the examples of the present invention were tested for the ability to inhibit ABL (T315I) kinase activity. […] Kinase activity was determined according to the manufacturer's instructions. Peptide substrate is Abltide ([…]), purchased from Millipore Corporation, USA. Ion exchange chromatography paper P81 (ion exchange filter paper) was purchased from Whatman Company, UK. [γ-33P] ATP was purchased from Perkin Elmer Company. […] [γ-33P] ATP was added at room temperature, with final concentration of 1.0 μM, and the reaction was performed for 120 minutes. 20 μl aliquots were transferred onto the ion exchange chromatography paper P81. […] Finally, γ-33P radioactivity was measured.

[4] = tested on: KU812 human peripheral blood basophilic leukocytes; assay: CellTiter-Glo cell viability assay, Bcr-Abl-positive cells; conditions: KU812, 72 h, read-out: IC50 KU812
Description: (§8) The resulting solutions were 10-fold serially diluted and formulated into 10 concentrations.
(§9) MEG-01 human megakaryocyte leukemia cells and KU812 human peripheral blood basophilic leukocytes, purchased from ATCC Company, USA.
(§10) The peripheral wells were filled with sterile PBS;
(§11) 2) Adding 10 μl of 5× concentration gradient of the tested compound, and adding 10 μl medium containing 0.5% DMSO into the blank control wells, in which the concentration of DMSO was 0.1%;
(§12) 3) Incubating the cells in a 37° C./5% CO2 incubator;
(§13) 4) Adding 30 μl Cell Titer-Glo® Reagent 72 hours after adding the compound;
(§14) 5) Incubating in a 37° C./5% CO2 incubator for 10 minutes; and centrifuging at low speed and then measuring chemiluminescence values on a PHERAstar microplate reader.
(§15) 6) Calculating cell viability (Cell Viability=(RLUsample/RLUnegative)×100%, wherein RLUsample was RLU (Relative Light Units) value of the well added with the compound and RLUnegative was RLU value of the well without the compound (i.e., cell control, which was treated with the same concentration of DMSO)). Data were processed by using a four-parameter logistic fitting module in Graphpad Prism 4.0 software to calculate IC50.

[5] = tested on: MEG-01 human megakaryocyte leukemia cells; assay: as above; conditions: MEG-01, 72 h, read-out: IC50 MEG-01
Description: as §8, §9, §10, §11, §12, §13, §14, §15

[6] = Pharmacokinetic studies in male SD rats; assay type: in vivo; conditions: rat, plasma; for MRT inf: read-out: MRT(0-∞)
Description: The compound prepared in Example 27 of the present invention was illustratively selected for this experiment. The pharmaceutical formulation for oral administration was made by dissolving the compound in physiological saline to prepare 3 mg/ml of suspension. The pharmaceutical formulation for caudal vein injection was made by using a mixed solution of DMSO, polyoxyethylene castor oil and physiological saline in the volume ratio of 1:30:69 to prepare 2.5 mg/ml of solution.
Male SD rats, each group of three, weighing 150 g-250 g, were provided by Shanghai SIPPR-BK Laboratory Animal Co. Ltd., China. The tested rats were acclimatized to the environment for 2-4 days prior to the experiment, and fasted for 8-12 hours before administration. The rats drank water freely 2 hours after administration, and were fed food 4 hours after administration.
1) Taking blank plasma (zero-hour sample) after the SD rats were fasted but allowed drinking water freely for 12 hours;
2) Administering to three rats in Step 1) the compound prepared in Example 27 at 15 mg/kg by gavage (Intragastric administration, IG);
administering to another three rats in Step 1) the compound prepared in Example 27 at 3 mg/kg by caudal vein (Intravenous administration, IV);
(§7) 3) Collecting sequentially blood from retinal venous plexus of the rats at 10 min, 30 min, 1 h, 2 h, 4 h, 6 h, 8 h, 10 h, 24 h after gavage administration, placing into the heparin-coated EP tubes, taking the upper plasma after centrifuging for 5 min at 8000 rpm/min, and storing at −20° C. until LC-MS/MS analysis;
4) Calculating the pharmacokinetic parameters using WinNonlin software according to the blood concentration—time data obtained from Step 3), shown in Table 4;
as §7, with “5)” for “3)”, “5 min, 15” for “10”, “h,” for “h, 6 h,”, “8” for “8 h, 10”, “caudal vein” for “gavage”
6) Calculating the pharmacokinetic parameters using WinNonlin software according to the blood concentration—time data obtained from Step 5), shown in Table 4.

IC50 [1]	IC50 [2]	IC50 (K562 leukemia cells)	IC50 [3]	IC50 (Human ABL1 (T315I))	Compound	further results
3090 nM	270 nM	2060 nM	110 nM		Cc1ccc(NC(=O)Nc2ccc(CN3CCN(C)CC3)c(C(F)(F)F)c2)cc1C#Cc1cnc2[nH]ccc2n1 [Example 2, N-[3-((1H-pyrrolo[2,3-b]pyrazin-5-yl)ethynyl)-4-methylphenyl]-N′-[4-((4-methylpiperazin-1-yl)methyl)-3-trifluoromethylphenyl]urea]	
		13500 nM	1060 nM		Cc1ccc(C(=O)Nc2ccc(CN3CCN(C)CC3)c(C(F)(F)F)c2)cc1C#Cc1ccn2nc(N)nc2c1 [Example 4, 3-((2-amino-[1,2,4]triazolo[1,5-a]pyridin-7-yl)ethynyl)-4-methyl-N-[4-((4-methylpiperazin-1-yl)methyl)-3-trifluoromethylphenyl]benzamide]	IC50 [4]: 0.789 nM; IC50 [5]: 3.28 nM
		6790 nM	2150 nM	2.28 nM	CNc1nc2cc(C#Cc3cc(C(=O)Nc4ccc(CN5CCN(C)CC5)c(C(F)(F)F)c4)ccc3C)ccn2n1 [Example 5, 3-((2-methylamino-[1,2,4]triazolo[1,5-a]pyridin-7-yl)ethynyl)-4-methyl-N-[4-((4-methylpiperazin-1-yl)methyl)-3-trifluoromethylphenyl]benzamide]	IC50 [4]: 0.633 nM; IC50 [5]: 1.76 nM
		4160 nM		39.4 nM	Cc1ccc(C(=O)Nc2ccc(CN3CCN(C)CC3)c(C(F)(F)F)c2)cc1C#Cc1ccn2nc(N(C)C)nc2c1 [Example 6, 3-((2-dimethylamino-[1,2,4]triazolo[1,5-a]pyridin-7-yl)ethynyl)-4-methyl-N-[4-((4-methylpiperazin-1-yl)methyl)-3-trifluoromethylphenyl]benzamide]	
6500 nM	1160 nM	330 nM	5080 nM	6.45 nM	Cc1ccc(C(=O)Nc2ccc(CN3CCN(C)CC3)c(C(F)(F)F)c2)cc1C#Cc1cn(C)c(-c2ncc(C(F)(F)F)[nH]2)n1 [Example 9, 4-methyl-3-((1-methyl-5′-trifluoromethyl-1H,1′H-[2,2′-diimidazol]-4-yl)ethynyl)-N-[4-((4-methylpiperazin-1-yl)methyl)-3-trifluoromethylphenyl]benzamide]	
3190 nM	870 nM	1920 nM	1420 nM		Cc1ccc(C(=O)Nc2ccc(CN3CCN(C)CC3)c(C(F)(F)F)c2)cc1C#Cc1cn(C)c(-c2ncc[nH]2)n1 [Example 10, 4-methyl-3-((1-methyl-1H,1′H-[2,2′-diimidazol]-4-yl)ethynyl)-N-[4-((4-methylpiperazin-1-yl)methyl)-3-trifluoromethylphenyl]benzamide]	
10000 nM	2680 nM	3140 nM	360 nM		Cc1ccc(C(=O)Nc2ccc(CN3CCN(C)CC3)c(C(F)(F)F)c2)cc1C#Cc1cn(C)c(-c2ncc([N+](=O)[O-])[nH]2)n1 [Example 11, 4-methyl-3-((1-methyl-5′-nitro-1H,1′H-[2,2′-diimidazol]-4-yl)ethynyl)-N-[4-((4-methylpiperazin-1-yl)methyl)-3-trifluoromethylphenyl]benzamide]	
4060 nM	5730 nM	2310 nM	1270 nM		Cc1cnc(-c2nc(C#Cc3cc(C(=O)Nc4ccc(CN5CCN(CCO)CC5)c(C(F)(F)F)c4)ccc3C)cn2C)[nH]1 [Example 12, 4-methyl-3-((1-methyl-5′-methyl-1H,1′H-[2,2′-diimidazol]-4-yl)ethynyl)-N-[4-((4-hydroxyethylpiperazin-1-yl)methyl)-3-trifluoromethylphenyl]benzamide]	
4720 nM	1160 nM		1270 nM		Cc1cn(-c2cc(NC(=O)c3ccc(F)c(C#Cc4cnc(-c5nc[nH]n5)n4C)c3)cc(C(F)(F)F)c2)cn1 [Example 16, 3-[1-methyl-2-([1,2,4]-1H-triazol-3-yl)imidazol-5-yl]ethynyl-4-fluoro-N-[3-trifluoromethyl-5-(4-methylimidazol-1-yl)phenyl]benzamide]	
3980 nM	640 nM		980 nM		CNC(=O)c1cc(Oc2cc(NC(=O)c3ccc(F)c(C#Cc4cnc(-c5nc[nH]n5)n4C)c3)cc(C(F)(F)F)c2)ccn1 [Example 17, 4-fluoro-3-[1-methyl-2-([1,2,4]-1H-triazol-3-yl)imidazol-5-yl]ethynyl-N-[3-trifluoromethyl-5-(2-N-methylcarbamoylpyridin-4-yl)oxy]phenylbenzamide]	
		1430 nM		57.9 nM	Cc1ccc(C(=O)Nc2ccc(CN3CCN(C)CC3)c(C(F)(F)F)c2)cc1C#Cc1ccc(-c2ncc(C(F)(F)F)[nH]2)nc1 [Example 18, 4-methyl-3-((2-(5-trifluoromethyl-1H-imidazol-2-yl)pyridin-5-yl)ethynyl)-N-[4-((4-methylpiperazin-1-yl)methyl)-3-trifluoromethylphenyl]benzamide]	
		4520 nM	3010 nM	6.81 nM	Cc1ccc(C(=O)Nc2ccc(CN3CCN(C)CC3)c(C(F)(F)F)c2)cc1C#Cc1ccc(-c2ncc[nH]2)nc1 [Example 19, 4-methyl-3-((2-(1H-imidazol-2-yl)pyridin-5-yl)ethynyl)-N-[4-((4-methylpiperazin-1-yl)methyl)-3-trifluoromethylphenyl]benzamide]	
		3580 nM	2860 nM		Cc1ccc(C(=O)Nc2ccc(CN3CCN(C)CC3)c(C(F)(F)F)c2)cc1C#Cc1ccc(-c2nc[nH]n2)nc1 [Example 25, 4-methyl-3-((2-(1,2,4-triazol-3-yl)pyridin-5-yl)ethynyl)-N-[4-((4-methylpiperazin-1-yl)methyl)-3-trifluoromethylphenyl]benzamide]	
					Cc1ccc(C(=O)Nc2ccc(CN3CCN(C)CC3)c(C(F)(F)F)c2)cc1C#Cc1cnc2[nH]ccc2n1 [Example 27, hydrochloride]	AUC(0-inf) ([6]; iv, I.V. 3 mg/kg): 3380 ng·h/mL; AUC(0-t) ([6]; iv, I.V. 3 mg/kg): 3300 ng·h/mL; Cmax ([6]; iv, I.V. 3 mg/kg): 1270 ng/mL; half-life ([6]; iv, I.V. 3 mg/kg): 4.93 h; MRT inf ([6]; iv, I.V. 3 mg/kg): 4.92 h; bioavailability ([6]; oral, I.G. 15 mg/kg vs I.V. 3 mg/kg, read-out: F (oral bioavailability)): 32.6%; AUC(0-inf) ([6]; po, I.G. 15 mg/kg): 5220 ng·h/mL; AUC(0-t) ([6]; po, I.G. 15 mg/kg): 5370 ng·h/mL; Cmax ([6]; po, I.G. 15 mg/kg): 376 ng/mL; Tmax ([6]; po, I.G. 15 mg/kg): 7.33 h; half-life ([6]; po, I.G. 15 mg/kg): 4.1 h; MRT inf ([6]; po, I.G. 15 mg/kg): 7.71 h

Compound	IC50 [1]	IC50 [2]	IC50 (K562 leukemia cells)	IC50 [3]	IC50 (Human ABL1 (T315I))	further results
Cc1ccc(C(=O)Nc2ccc(CN3CCN(C)CC3)c(C(F)(F)F)c2)cc1C#Cc1cnc2[nH]ccc2n1 [Example 3]	2850 nM	380 nM	6330 nM	180 nM	2.12 nM	IC50 [4]: 0.395 nM; IC50 [5]: 1.38 nM
